Data: the supplement of paper PMC7801607

Legend:
HepG2-A16-CD81 = assay: CC50; higher = less toxic
Method: (§1)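 Dose-response IC50s: P. falciparum NF54 asexual (pLDH, 72 h; 6 means >6 µM), Dd2 asexual (SYBR Green I, 72 h, 1536-well; 5 means >5 µM), NF54 stage IV/V gametocytes (luciferase 48 h, ATP 24 h, PrestoBlue 48 h), P. berghei liver stage in HepG2-A16-CD81 (luciferase, 48 h; 5 means >5 µM), HepG2 CC50 (CellTiter-Glo; 5 means >5 µM).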

[1] = system: Plasmodium falciparum NF54 asexual blood stage
[2] = system: Plasmodium berghei ANKA liver stage in HepG2-A16-CD81
[3] = system: Plasmodium falciparum Dd2 asexual blood stage
[4] = system: Plasmodium falciparum NF54 stage IV/V gametocytes
Method: as §1

[5] = system: Plasmodium falciparum NF54 stage IV/V gametocytes; remark: listed apart in the source
Method: as §1

IC50 [1]	IC50 [2]	IC50 [3]	IC50 (ATP bioluminescence) [4]	IC50 (luciferase reporter) [5]	SMILES	CC50 (HepG2-A16-CD81)
986 nM	128 nM	236 nM	1530 nM	5210 nM	CC[C@H](NC(=O)[C@H](C)NC)C(=O)N1C[C@@H](O)C[C@H]1Cc1c(-c2[nH]c3cc(F)ccc3c2C[C@@H]2C[C@H](O)CN2C(=O)[C@H](CC)NC(=O)[C@H](C)NC)[nH]c2cc(F)ccc12	> 5000 nM
44.8 nM	> 5000 nM	19.4 nM	–	480 nM	O=C(Nc1cccc(C2=NCCN2)c1)c1ccc(-c2ccc(C(=O)Nc3cccc(C4=NCCN4)c3)cc2)cc1	> 5000 nM
–	–	> 5000 nM	1200 nM	–	NCC(=O)Nc1ccc(-n2nc(C(F)(F)F)cc2-c2ccc3c(ccc4ccccc43)c2)cc1	–
678 nM	> 5000 nM	792 nM	350 nM	3800 nM	CCN(CC)CCn1c(=N)n(CC(O)COc2ccc(Cl)cc2Cl)c2ccccc21 (stereo not drawn)	> 5000 nM
–	–	> 5000 nM	–	3920 nM	C(=C\c1nc2ccccc2[nH]1)/c1ccc2c(c1)OCO2	–
149 nM	> 5000 nM	22 nM	–	–	CN1CCN(c2ccc3[nH]c(-c4ccc5[nH]c(-c6ccc(O)cc6)nc5c4)nc3c2)CC1	> 5000 nM
1670 nM	–	3150 nM	–	5400 nM	Oc1c(C(Nc2nc3ccccc3s2)c2ccc(OC(F)F)cc2)ccc2cccnc12 (stereo not drawn)	–
> 6000 nM	–	> 5000 nM	496 nM	4030 nM	Cc1cccc(C)c1C(=O)Nc1nc(-c2ccccn2)cc2ccccc12	–
> 6000 nM	–	> 5000 nM	–	31600 nM	N#Cc1c(F)c(Cl)c(NCc2ccccc2)c(C#N)c1F	–
1640 nM	642 nM	1280 nM	–	–	NC(=S)N/N=C/c1ncccc1N	> 5000 nM
–	–	> 5000 nM	–	11400 nM	CCOc1ccc(C(=O)NCCc2ccccc2)cc1	–
1390 nM	2510 nM	1900 nM	1660 nM	–	CN1CCN(Cc2ccc(-c3cnc4[nH]cc(-c5ccc6[nH]ccc6c5)c4c3)cc2)CC1	> 5000 nM
–	–	> 5000 nM	2750 nM	–	COc1cc(NS(=O)(=O)c2ccc(C)cc2)c2ncccc2c1	–
–	0.527 nM	108 nM	–	–	COc1cc(NCc2ccc3nc(N)nc(N)c3c2C)cc(OC)c1OC	1660 nM
1070 nM	2790 nM	831 nM	340 nM	3820 nM	N=c1n(CCN2CCCCC2)c2ccccc2n1CC(O)COc1ccc(Cl)cc1Cl (stereo not drawn)	> 5000 nM
3010 nM	–	> 5000 nM	1130 nM	46300 nM	Cc1nc2ccc(Oc3ccccc3)cc2c2c1CCN2CCc1ccccc1	–
–	> 5000 nM	1010 nM	–	–	Fc1ccc2c(/C=C/c3cccnc3)c[nH]c2c1	> 5000 nM
383 nM	> 5000 nM	51.6 nM	2910 nM	7640 nM	CCC(C)NCC(O)Cn1c2ccc(Cl)cc2c2cc(Cl)ccc21 (stereo not drawn)	> 5000 nM
–	> 5000 nM	2060 nM	–	–	COC1CC2CCC(C)C(O)(O2)C(=O)C(=O)N2CCCCC2C(=O)OC(C(C)CC2CCC(OCCO)C(OC)C2)CC(=O)C(C)/C=C(\C)C(O)C(OC)C(=O)C(C)CC(C)/C=C/C=C/C=C/1C (stereo not drawn)	> 5000 nM
–	–	> 5000 nM	2160 nM	25700 nM	O=C1C=C(c2ccccc2)S(=O)(=O)c2ccccc21	–
> 6000 nM	–	> 5000 nM	620 nM	–	CN(C)CCCNC(=O)c1ccc(-c2cc(O)c3ncccc3c2)cc1	–
–	–	> 5000 nM	–	30600 nM	O=C(Nc1ccc(F)cc1)c1nn(-c2ccccc2)c(=O)cc1Cl	–
4000 nM	1060 nM	776 nM	–	1670 nM	CN(C)CCCOc1ccc(-c2ccc3ncc4c(c3c2)n(C2CCOCC2)c(=O)n4C)cn1	> 5000 nM
878 nM	> 5000 nM	2850 nM	–	–	CC(C)/N=c1\cc2n(-c3ccc(Cl)cc3)c3ccccc3nc-2cc1Nc1ccc(Cl)cc1	> 5000 nM
58.5 nM	56.1 nM	7 nM	–	–	Cc1[nH]c2ccccc2c1CCNCc1ccc(/C=C/C(=O)NO)cc1	141 nM

IC50 [1]	IC50 [2]	IC50 [3]	IC50 (ATP bioluminescence) [4]	IC50 (luciferase reporter) [5]	SMILES	CC50 (HepG2-A16-CD81)
–	–	> 5000 nM	474 nM	–	CC(C)=CCC/C(C)=C/CNCCNC1C2CC3CC(C2)CC1C3 (stereo not drawn)	–
1.7 nM	4.22 nM	1740 nM	–	–	CCc1nc(N)nc(N)c1C#CC(C)c1cc(OC)cc(-c2ccncc2)c1 (stereo not drawn)	> 5000 nM
> 6000 nM	–	3660 nM	2130 nM	–	CC(C)Oc1ccc(-c2nc(-c3cccc4c3CC[C@@H]4NCCO)no2)cc1C#N	–
> 6000 nM	> 5000 nM	2050 nM	–	–	COc1nc2ccc(Br)cc2cc1[C@@H](c1ccccc1)[C@@](O)(CCN(C)C)c1cccc2ccccc12	> 5000 nM
–	–	> 5000 nM	1100 nM	–	C[C@@H](NC(=O)c1cccc(-c2c[nH]c(-c3cc4ccccc4cn3)n2)c1)c1ccc(F)cc1	–
–	–	> 5000 nM	5860 nM	–	Clc1ccc(Cn2c(CN3CCCC3)nc3ccccc32)cc1	–
3460 nM	–	> 5000 nM	5020 nM	15900 nM	Oc1cccc(C(Nc2nccs2)c2ccc3cccnc3c2O)c1 (stereo not drawn)	–
–	–	> 5000 nM	–	1080 nM	CC(C)(C)c1ccc(Oc2ccc(N)cc2)cc1	–
–	–	4050 nM	4260 nM	28600 nM	CCOC(=O)Nc1cc(NC(C)CC(C)CN(CC)CC)c2nc(-c3ccccc3)c(-c3ccccc3)nc2n1 (stereo not drawn)	–
30.1 nM	> 5000 nM	50.6 nM	–	–	CCN(CC)CCCC(C)Nc1ccnc2cc(Cl)ccc12 (stereo not drawn)	> 5000 nM
2630 nM	–	3320 nM	824 nM	7080 nM	O=C(/C(=C/c1ccc(Cl)cc1Cl)n1ccnc1)c1ccc(Cl)cc1	–
–	3570 nM	4440 nM	–	–	CC[C@@]1(O)C(=O)OCc2c1cc1n(c2=O)Cc2cc3c([N+](=O)[O-])cccc3nc2-1	> 5000 nM
765 nM	–	4990 nM	–	–	Fc1ccc(-c2nc(-c3c[nH]c4ccc(Br)cc34)[nH]c2-c2ccc(F)cc2)cc1	–
2210 nM	–	3360 nM	–	6070 nM	N=C(N)NCCCCC(=O)Nc1cc(C(F)(F)F)cc(NC(=O)c2cc(C(=O)Nc3cc(C(F)(F)F)cc(NC(=O)CCCCNC(=N)N)c3O[C@@H]3CCNC3)ncn2)c1O[C@@H]1CCNC1	–
> 6000 nM	–	> 5000 nM	–	–	C=CCN(C(=O)OCc1ccc([N+](=O)[O-])cc1)C1CCN(CC[C@](C)(CN(C)S(=O)(=O)c2ccccc2)c2ccccc2)CC1	–
–	1720 nM	1620 nM	–	–	O=c1cc(NCCCN[C@@H]2CCOc3c(Br)cc(Br)cc32)[nH]c2ccsc12	> 5000 nM
> 6000 nM	–	> 5000 nM	–	–	CCOCc1nc2c(N)nc3ccccc3c2n1CC(C)(C)O	–
> 6000 nM	–	> 5000 nM	–	–	CCOc1noc2cc(OCCC3CCN(c4ccc(C)nn4)CC3)ccc12	–
> 6000 nM	–	> 5000 nM	–	–	O=C(NCc1ccc(F)cc1)c1c(O)c2ncccc2[nH]c1=O	–
–	–	> 5000 nM	950 nM	–	CC(C)c1ccc(COc2cccc(-c3cc(S(C)=O)c(C#N)c(=O)[nH]3)c2)cc1 (stereo not drawn)	–
2110 nM	–	> 5000 nM	–	–	CCC(C)(C)c1ccc(CC(C)CN2C[C@@H](C)O[C@@H](C)C2)cc1 (stereo partly drawn)	–
62.1 nM	1990 nM	69.4 nM	–	103 nM	Cn1cc(NC(=O)c2cc(NC(=O)c3ccc(/C=C/c4cnc5ccccc5c4)cc3)cn2C)cc1C(=O)NCCN1CCOCC1	> 5000 nM
> 6000 nM	–	–	1290 nM	–	C[Si]1(C)CCN(Cc2cc(-c3ccc(Cl)cc3)n(-c3ccc(Cl)cc3)n2)CC1	–
> 6000 nM	–	> 5000 nM	–	–	COc1ccc(CNC(=O)C(NS(=O)(=O)c2ccc3nc(C)sc3c2)C(C)C)cc1 (stereo not drawn)	–

SMILES	IC50 [1]	IC50 [2]	IC50 [3]	IC50 (ATP bioluminescence) [4]	IC50 (luciferase reporter) [5]	CC50 (HepG2-A16-CD81)
Nc1c(C(=O)NCc2ccco2)c2nc3ccccc3nc2n1CCN1CCCCC1	> 6000 nM	–	> 5000 nM	3160 nM	–	–
